In test [1] the target is T1, human IDO1 (Homo sapiens, UniProt P14902).
T1 construct: expressed in transfected cells
The experiment in a line: IDO inhibition assay in HEK293 cells stably expressing human IDO1 (kynurenine, Ehrlich reagent, absorbance 490 nm). Particulars: 20 hours incubation, read-out: IDO1 HEK Human IC50. Type of test: cell-based. Put shortly:
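HEK293 clones stably expressing human IDO1 were treated with compound for 20 h at 37 °C in phenol-red-free RPMI with 10% FBS, then stopped with 0.2% TCA and heated at 50 °C for 30 min. Kynurenine was read as absorbance at 490 nm after Ehrlich reagent. IC50 used DMSO as 0% and 500 nM reference standard as 100% inhibition.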

Test [2] concerns the target T2, indoleamine 2,3-dioxygenase (IDO) (Homo sapiens, UniProt P14902).
T2 construct: host or cells: HeLa cells treated with IFNγ (25 ng/mL)
The experiment in a line: HeLa cell-based indoleamine 2,3-dioxygenase (IDO) assay (IFNγ-induced kynurenine production, absorbance 480 nm). The note with it: HeLa cells, IFNγ 25 ng/mL, 48 hour incubation. The method, then:
Assessment of inhibitor activity in HeLa cell-based indoleamine 2,3-dioxygenase (IDO) assay:
HeLa (ATCC® CCL-2) cells were obtained from the ATCC® and cultured in Dulbecco's Modified Eagle Medium supplemented with 4.5 g/L glucose, […] L-glutamine and […] (#10-013-CV, Corning), 2 mM L-alanyl-L-glutamine dipeptide (#35050-061, Gibco), 100U/mL penicillin, 100 μg/mL stroptomycin (#SV30010. HyClone) and 10% fetal bovine serum (#SH30071.03 HyClone). Cells were maintained in a humidified incubator at 37° C. in 5% CO2.
IDO activity was assessed as a function of kynurenine production as follows: HeLa cells were seeded in a 96-well culture plate at a density of 5,000 cells/well and allowed to equilibrate overnight. After 24 hours, the media was aspirated and replaced with media containing IFNγ (#285-IF/CF, R&D Systems) at a final concentration of 25 ng/mL. A serial dilution of each test compound was added to the cells in a total volume of 200 μL of culture medium. After a further 48 hour incubation, 170 μL of supernatant was transferred from each well to a fresh 96-well plate, 12.1 μL of 6.1N trichloroacetic acid (#T0699, Sigma-Aldrich) was added to each well and mixed, followed by incubation at 65° C. for 20 minutes to hydrolyze N-formylkynurenine, the product of indoleamine 2,3-dioxygenase, to kynurenine. The reaction mixture was then centrifuged for 10 mins at 500×g to sediment the precipitate. 100 μL of the supernatant was transferred from each well to a fresh 96-well plate. 100 μl of 2% (w/v) p-dimethylaminobenzaldehyde (#15647-7, Sigma-Aldrich) in acetic acid (#A6283, Sigma-Aldrich) was added to each well mixed and incubated at room temperature for 20 mins. Kynurenine concentrations were determined by measuring absorbance at 480 nm and calibrating against an L-kynurenine (#K8625, Sigma-Aldrich) standard curve using a SPECTRAMAX® M2e microplate reader (Molecular Devices). The percentage activity at each inhibitor concentration was determined and IC50 values assessed using nonlinear regression.

pIC50: −log10 of the molar value.

The term pIC50 denotes the IC50 on a negative log10 scale, so that one unit is a factor of ten.

T2 sequence (P14902 whole entry): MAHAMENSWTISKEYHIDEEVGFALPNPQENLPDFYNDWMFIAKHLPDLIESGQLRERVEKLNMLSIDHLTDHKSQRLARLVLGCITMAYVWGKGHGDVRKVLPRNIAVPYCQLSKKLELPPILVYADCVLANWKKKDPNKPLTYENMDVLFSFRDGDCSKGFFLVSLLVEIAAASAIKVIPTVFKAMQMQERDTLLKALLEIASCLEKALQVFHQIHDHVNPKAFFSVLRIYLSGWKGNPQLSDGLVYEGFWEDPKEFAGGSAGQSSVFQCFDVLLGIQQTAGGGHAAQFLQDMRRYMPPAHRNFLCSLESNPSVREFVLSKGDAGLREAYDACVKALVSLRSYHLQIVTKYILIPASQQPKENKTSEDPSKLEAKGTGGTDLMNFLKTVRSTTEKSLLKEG
T1 sequence (P14902 whole entry): as above

With `C[C@@H](c1nnc(Nc2ccccc2)[nH]1)[C@H]1CC[C@@H](c2ccnc3ccc(F)cc32)CC1` [Example 22, 5-((R)-1-((1s,4s)-4-(6-Fluoroquinolin-4-yl)cyclohexyl)ethyl)-N-phenyl-4H-1,2,4-triazol-3-amine], the values for the pIC50 in test [1] and in test [2] were 8.23 and 8.06, respectively.
For `C[C@@H](Nc1nnc(-c2ccc(Cl)cc2)s1)[C@H]1CC[C@@H](c2ccnc3ccc(F)cc32)CC1` [Example 24, 5-(4-Chlorophenyl)-N—((R)-1-((1s,4S)-4-(6-fluoroquinolin-4-yl)cyclohexyl)ethyl)-1,3,4-thiadiazol-2-amine], in that order: 8.26 and 8.27.
The matching figures for `C[C@@H](Nc1nnc(-c2ccc(C#N)cc2)o1)[C@H]1CC[C@@H](c2ccnc3ccc(F)cc32)CC1` [Example 29, 4-(5-((R)-1-((1s,4S)-4-(6-fluoroquinolin-4-yl)cyclohexyl)ethylamino)-1,3,4-oxadiazol-2-yl)benzonitrile]: 7.63 and 7.26.
Consider `Cc1cnc(-c2nnc(N[C@H](C)[C@H]3CC[C@@H](c4ccnc5ccc(F)cc54)CC3)o2)s1` [Example 30, N-((R)-1-((1s,4S)-4-(6-fluoroquinolin-4-yl)cyclohexyl)ethyl)-5-(5-methylthiazol-2-yl)-1,3,4 oxadiazol-2-amine], for which the pIC50 in test [1] is 7.97; in test [2], 7.88.
For `C[C@@H](Nc1nnc(-c2ccc(C#N)cc2)[nH]1)[C@H]1CC[C@@H](c2ccnc3ccc(F)cc32)CC1` [Example 41, 4-(5-((R)-1-((1s,4S)-4-(6-Fluoroquinolin-4-yl)cyclohexyl)ethylamino)-4H-1,2,4-triazol-3-yl)benzonitrile], in that order: 7.64 and 6.41.
On to `C[C@@H](c1ncc(-c2ccc(Cl)cc2)[nH]1)[C@H]1CC[C@@H](c2ccnc3ccc(F)cc32)CC1` [Example 44, 4-((1s,4s)-4-((R)-1-(5-(4-Chlorophenyl)-1H-imidazol-2-yl)ethyl)cyclohexyl)-6-fluoroquinoline], for which the values for the pIC50 in test [1] and in test [2] were 7.91 and 7.98, respectively.

Source of the values: US11351164B2, “Inhibitors of indoleamine 2,3-dioxygenase and methods of their use” (BRISTOL-MYERS SQUIBB COMPANY, priority 2016, dated 2022).
